Source: patent publication US8901317B2, “Tryptamine derivatives, their preparation and their use in gastropathy” (Council of Scientific & Industrial Research, priority 2010, dated 2014)

What was measured:
[1] = Ferric reducing antioxidant power (FRAP) assay; details: for FRAP Value6 min (μM) M ± SD: 6 min; for FRAP Value6 min (μM) M ± SD / FRAP Value65 min (μM) M ± SD: compound at 10 μM relative to ferrous sulfate; for FRAP Value65 min (μM) M ± SD: 65 min
Description: The antioxidant property of different tryptamine derivatives were assessed and compared with the known antioxidants for potency. […] The FRAP assay is based on the measurement of the ability of the substance to reduce Fe^3+ to Fe^2+, greater the reducing ability greater the anti oxidant property. Antioxidants reduce Fe^3+-TPTZ in to blue colored Fe^2+-TPTZ complex, which results in an increase in the absorbance at 595 nm giving a FRAP value. […] Absorbance changes at different time intervals (FIG. 6) as well as at different concentrations (FIG. 7) at time 6 min in the presence of different compounds at 595 nm were measured. FRAP values at 6 min and 65 min were calculated from different tryptamine derivatives and some known antioxidant (Table 1). […] DPPH assay based on the DPPH free radicals scavenging power of the antioxidant molecules. Higher the scavenging power higher will be the antioxidant property.
The assay was performed in a 96-well microplate. FRAP reagent was prepared by mixing of 10 ml acetate buffer (200 mM, pH-3.6), 1 ml of 2,4,6-tris(2-pyridyl)-s-triazine (TPTZ) solution (10 mM in 40 mM HCl) and 1 ml of ferric chloride solution (20 mM) in distilled water. For 1 h the mixture was kept in a water bath at 37° C. In 96-well microplates, 25 μL of the compounds under investigation dissolved (in methanol, some compound dissolved in water) at different concentrations in the range 1-25 μM was placed in triplicate and freshly prepared FRAP solution (175 μL) was added to this sample. A micro plate reader monitored the absorbance at 595 nm at different time intervals for up to 150 min. The absorbance of a mixture 175 μL TRAP sol and 25 μL methanol or water was taken which was subtracted from the absorbance of the samples at each time interval to calculate the absorbance change (ΔA). The FRAP value at time interval t (FRAP valuet) was calculated according to the formula: FRAP valuet(M)=(ΔatFl/ΔatFe^2+)×10^−5 Where ΔatFl is the absorbance change after the time interval t (6 and 65 min) relative to the tested flavonoid at the concentration of 10 μM and ΔatFe^2+ is the absorbance change at the same time interval relative to ferrous sulfate at the same concentration (Pal, C; et al. Free Radic Biol Med, 49(2), 258-267, 2010, Firuzi, O; et al. Biochim. Biophys. Acta 1721:174-184; 2005).

[2] = DPPH free radical scavenging assay
Description: The antioxidant property of different tryptamine derivatives were assessed and compared with the known antioxidants for potency. A range of different synthesized compounds and known anti oxidants, quercetin, ascorbic acid and gallic acid were analyzed by the FRAP assay. The FRAP assay is based on the measurement of the ability of the substance to reduce Fe^3+ to Fe^2+, greater the reducing ability greater the anti oxidant property. Antioxidants reduce Fe^3+-TPTZ in to blue colored Fe^2+-TPTZ complex, which results in an increase in the absorbance at 595 nm giving a FRAP value. […] Absorbance changes at different time intervals (FIG. 6) as well as at different concentrations (FIG. 7) at time 6 min in the presence of different compounds at 595 nm were measured. FRAP values at 6 min and 65 min were calculated from different tryptamine derivatives and some known antioxidant (Table 1). […] DPPH assay based on the DPPH free radicals scavenging power of the antioxidant molecules. Higher the scavenging power higher will be the antioxidant property. […] This assay was performed in presence of some known antioxidants such as ascorbic acid, quercetin and gallic acid.
2,2-Diphenyl-1-Picrylhydrazyl (DPPH) is a stable free radical that can accept hydrogen radical or an electron and become a stable diamagnetic molecule. The antioxidants can scavenge the DPPH by donating hydrogen as visualized by discoloration of the DPPH radical from purple to yellow (Pal, C; et al. Free Radic Biol Med, 49(2), 258-267; 2010, Ben Farhat, M.; et al. J. Agric. Food Chem. 57:10349-10356; 2009, Han, J; et al. Wei Sheng Yan Jiu 38:596-598; 2009). The assay system contained 1 mL of compounds under investigation dissolved (in methanol, some compound dissolved in water) at different concentrations in the range 10-100 μM solution and 4 ml of DPPH (0.15 mM) in methanol (80% in water v/v) and mixed well. It was allowed to stand for 30 min at 27° C. away from light. Ascorbic acid at the same concentration was taken as positive control. The absorbance of the solution was measured spectrophotometrically at 517 nm and from the decrease of absorption; the antioxidant activity of different tryptamine derivatives were determined.

[3] = test system: indomethacin-induced gastric mucosal damage; test: Indomethacin-induced gastric mucosal damage (ulcer index, histology); format: in vivo, Sprague-Dwaley rats; details: for gastroprotective effect compared with SEGA (3a): 6.9 mg kg^−1 intraperitoneally, indomethacin-induced gastropathy; for Gastric mucosal damage (ulcer index): rats
Description: Sprague-Dwaley rats (180-220 gm) were used for this study. Each group (control or experimental) of animals was maintained at 24±2° C. with 12 hrs lights and dark cycle. The animals were fasted for 24 hrs before the start of experiments. They were provided with water ad libitum to avoid food-induced increased acid secretion and its effect on gastric lesions. Gastric mucosal ulcer was developed by indomethacin as described (Pal, C; et al. Free Radic Biol Med, 49(2), 258-267; 2010, Biswas, K.; et al. J. Biol. Chem. 278:10993-11001; 2003, Bandyopadhyay, U.; et al. Life Sci. 71:2845-2865; 2002). Briefly, all the animals were divided into control, indomethacin and test compound group. Oral administration of indomethacin at a dose of 48 mg kg^−1 b.w was given to the fasted animals to induce gastric ulcer. […] Control group received vehicle only but no indomethacin. After 4 hrs of indomethacin treatment, the animals were sacrificed under proper euthanasia and stomachs were collected. The mucosal injury was scored as ulcer index as follows: 0=no pathology; 1=one pinhead ulcer. The sum of the total scores divided by the number of animals gave the ulcer index. All the in vivo studies were done in accordance with the institute animal ethical committee guidelines. To see the effect of SEGA on diclofenac induced gastric mucosal injury, gastric mucosal damage was developed by the oral administration of diclofenac (75 mg kg^−1) and the rest of the experiment was carried out in a similar way as described for indomethacin. Diclofenac produced pinhead ulcer like indomethacin and the mucosal injury was scored as ulcer index as described above. Ethanol-induced gastric mucosal injury was developed with oral administration of 1 ml of 50% ethanol (Banerjee, R. K. (2002) Life Sci 71, 2845-2865) and after 4 hrs the animals were sacrificed and cold-restrain stress induced mucosal injury was developed by immobilizing the animals at 4° C. for 3.5 hrs (Banerjee, R. K. (2002) Life Sci 71, 2845-2865, (2003) J Biol Chem 278, 10993-11001).
Stomach tissues from the animals of different groups were washed first washed several times with PBS (pH 7.4) and later fixed in 10% buffered formalin for 12 hrs at 25° C. The formalin-fixed tissues were then dehydrated and embedded in paraffin for preparing semi-thin sections (Maity, P.; et al. J. Biol. Chem. 283:14391-14401; 2008). The semi-thin sections were prepared using a microtome and taken over poly-L-lysine coated glass slide for hematoxylene-eosine staining. The stained sections were observed under microscope (Leica DM-2500, Germany) and were documented by high-resolution digital camera.

[4] = test system: rats; test: Toxicity (death) after injection in rats; format: in vivo
[5] = compounds 100 μM, 517 nm (Table 2)
[6] = compound 6.9 mg kg^−1 intraperitoneally before indomethacin 48 mg kg^−1 oral

SMILES: O=C1O[C@H]([C@@H](O)CO)C(O)=C1O [Ascorbic acid, reference compound]
- FRAP Value6 min (μM) M ± SD [1]: 15.46 ± 0.07 µM
- FRAP Value65 min (μM) M ± SD [1]: 15.89 ± 2.24 µM

SMILES: O=C(Cc1c[nH]c2ccccc12)NCCc1c[nH]c2ccc(O)cc12 [Compound 2c, N-(2-(5-hydroxy-1H-indol-3-yl)ethyl)-2-(1H-indol-3-yl)acetamide]
- FRAP Value6 min (μM) M ± SD [1]: 2.48 ± 0.10 µM
- FRAP Value65 min (μM) M ± SD [1]: 3.57 ± 0.41 µM
- Absorbance change (ΔA) at 30 min [2, 5]: 0.14 ± 0.04

SMILES: COc1ccc2[nH]cc(CCNC(=O)Cc3c[nH]c4ccccc34)c2c1 [Compound 2i, 2-(1H-indol-3-yl)-N-(2-(5-methoxy-1H-indol-3-yl)ethyl) acetamide]
- FRAP Value6 min (μM) M ± SD [1]: 1.94 ± 0.04 µM
- FRAP Value65 min (μM) M ± SD [1]: 2.5 ± 0.34 µM
- Absorbance change (ΔA) at 30 min [2, 5]: 0.12 ± 0.02

SMILES: O=C(NCCc1c[nH]c2ccccc12)c1cc(O)c(O)c(O)c1 [Compound 3b, N-(2-(1H-indol-3-yl)ethyl)-3,4,5-trihydroxybenzamide]
- FRAP Value6 min (μM) M ± SD [1]: 14.32 ± 0.36 µM
- FRAP Value65 min (μM) M ± SD [1]: 19.65 ± 2.1 µM
- gastroprotective effect compared with SEGA (3a) [3]: lesser gastroprotective effect
- Gastric mucosal damage (ulcer index) [3, 6]: 42 ± 2
- Absorbance change (ΔA) at 30 min [2, 5]: 0.31 ± 0.06
- Absorbance change (ΔA) at 30 min ([2]; concentration 10 μM (Table 3)): 0.16 ± 0.02
- Absorbance change (ΔA) at 30 min ([2]; concentration 30 μM (Table 3)): 0.21 ± 0.05
- Absorbance change (ΔA) at 30 min ([2]; concentration 50 μM (Table 3)): 0.23 ± 0.04
- Absorbance change (ΔA) at 30 min ([2]; concentration 80 μM (Table 3)): 0.28 ± 0.03
- Absorbance change (ΔA) at 30 min ([2]; concentration 100 μM (Table 3)): 0.31 ± 0.06

SMILES: COc1ccc2[nH]cc(CCNC(=O)c3cc(O)c(O)c(O)c3)c2c1 [Compound 3c, 3,4,5-trihydroxy-N-(2-(5-methoxy-1H-indol-3-yl)ethyl)benzamide]
- FRAP Value6 min (μM) M ± SD [1]: 15.32 ± 0.46 µM
- FRAP Value65 min (μM) M ± SD [1]: 21.96 ± 2.6 µM
- gastroprotective effect compared with SEGA (3a) [3]: lesser gastroprotective effect
- Gastric mucosal damage (ulcer index) [3, 6]: 39 ± 2
- Absorbance change (ΔA) at 30 min [2, 5]: 0.35 ± 0.08
- Absorbance change (ΔA) at 30 min ([2]; concentration 10 μM (Table 3)): 0.18 ± 0.02
- Absorbance change (ΔA) at 30 min ([2]; concentration 30 μM (Table 3)): 0.24 ± 0.03
- Absorbance change (ΔA) at 30 min ([2]; concentration 50 μM (Table 3)): 0.28 ± 0.05
- Absorbance change (ΔA) at 30 min ([2]; concentration 80 μM (Table 3)): 0.31 ± 0.07
- Absorbance change (ΔA) at 30 min ([2]; concentration 100 μM (Table 3)): 0.35 ± 0.08

SMILES: O=c1c(O)c(-c2ccc(O)c(O)c2)oc2cc(O)cc(O)c12 [Quercetin, reference compound]
- FRAP Value6 min (μM) M ± SD [1]: 28.11 ± 1.00 µM
- FRAP Value65 min (μM) M ± SD [1]: 48.55 ± 4.85 µM

SMILES: O=C(/C=C/c1ccc(O)cc1)NCCc1c[nH]c2ccccc12 [Compound 2e, (E)-N-(2-(1H-indol-3-yl)ethyl)-3-(4-hydroxyphenyl)acrylamide]
- FRAP Value6 min (μM) M ± SD [1]: 2.45 ± 0.19 µM
- FRAP Value65 min (μM) M ± SD [1]: 5.60 ± 1.02 µM
- Absorbance change (ΔA) at 30 min [2, 5]: 0.11 ± 0.02

SMILES: COc1ccc2[nH]cc(CCNC(=O)/C=C/c3ccc(O)cc3)c2c1 [Compound 2h, (E)-3-(4-hydroxyphenyl)-N-(2-(5-methoxy-1H-indol-3-yl)ethyl)acrylamide]
- FRAP Value6 min (μM) M ± SD [1]: 1.87 ± 0.13 µM
- FRAP Value65 min (μM) M ± SD [1]: 2.93 ± 1.43 µM
- Absorbance change (ΔA) at 30 min [2, 5]: 0.11 ± 0.03

SMILES: O=C(Cc1c[nH]c2ccccc12)NCCc1c[nH]c2ccccc12 [Compound 2f, N-(2-(1H-indol-3-yl)ethyl)-2-(1H-indol-3-yl)acetamide]
- FRAP Value6 min (μM) M ± SD [1]: 2.44 ± 0.24 µM
- FRAP Value65 min (μM) M ± SD [1]: 3.33 ± 0.49 µM
- Absorbance change (ΔA) at 30 min [2, 5]: 0.13 ± 0.03

SMILES: NCCc1c[nH]c2ccc(O)cc12 [Serotonin, 5-hydroxytryptamine, reference compound]
- FRAP Value6 min (μM) M ± SD [1]: 21.61 ± 3.65 µM
- FRAP Value65 min (μM) M ± SD [1]: 35.48 ± 6.55 µM
- reducing ability (Fe^3+ to Fe^2+) / antioxidant property in words ([1]; compared to other tryptamine derivatives and known antioxidants): very little antioxidant property
- death of rats after injection ([4]; i.p. 25 mg kg^−1): all the rats were found to be dead
- death of rats after injection ([4]; i.p. 50 mg kg^−1): all the rats were found to be dead

SMILES: COc1ccc2c(c1)c(CC(=O)O)c(C)n2C(=O)c1ccc(Cl)cc1 [Indomethacin, reference compound]
- Gastric mucosal damage (ulcer index) ([3]; indomethacin 48 mg kg^−1 alone, oral): 61 ± 3

SMILES: NCCc1c[nH]c2ccc(OC(=O)c3cc(O)c(O)c(O)c3)cc12 [Compound 4d, 3-(2-aminoethyl)-1H-indol-5-yl 3,4,5-trihydroxybenzoate]
- FRAP Value6 min (μM) M ± SD [1]: 24.02 ± 1.98 µM
- FRAP Value65 min (μM) M ± SD [1]: 35.40 ± 3.25 µM
- gastroprotective effect compared with SEGA (3a) [3]: lesser gastroprotective effect
- Gastric mucosal damage (ulcer index) [3, 6]: 41 ± 2.5
- Absorbance change (ΔA) at 30 min [2, 5]: 0.38 ± 0.07
- Absorbance change (ΔA) at 30 min ([2]; concentration 10 μM (Table 3)): 0.18 ± 0.01
- Absorbance change (ΔA) at 30 min ([2]; concentration 30 μM (Table 3)): 0.27 ± 0.03
- Absorbance change (ΔA) at 30 min ([2]; concentration 50 μM (Table 3)): 0.31 ± 0.05
- Absorbance change (ΔA) at 30 min ([2]; concentration 80 μM (Table 3)): 0.33 ± 0.05
- Absorbance change (ΔA) at 30 min ([2]; concentration 100 μM (Table 3)): 0.38 ± 0.07
